Data from patent US20240270762A1, “PENICILLIN-BINDING PROTEIN INHIBITORS” (priority 2021, published 2024).
≈ marks a conversion by molar mass, not a printed value.

Experiments:
[1] = target: T1, PBP3 from Pseudomonas aeruginosa (PAO1) (Pseudomonas aeruginosa, UniProt G3XD46); test: Bocillin-FL fluorescence polarization competition binding, P. aeruginosa PBP3; conditions: Binding affinity to P. aeruginosa PBP3; fluorescence polarization competition binding assay using Bocillin-FL; read-out: P. aeruginosa PBP3 Potency
T1 construct: made in house
How it was run: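 Purified PBP was preincubated with inhibitor (E. coli PBP3 1.5 μM, 30 min; P. aeruginosa PBP3 0.75 μM, A. baumannii PBP3 0.2 μM and PBP1a 1 μM, 15 min), then Bocillin-FL (0.1 μM; 0.05 μM for PBP1a) added and FP read up to 60 min. EC50 = 50% loss of bound probe.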

[2] = test system: E. coli ATCC 25922; test: microbe, parasite or virus in culture; assay type: cell-based; conditions: Escherichia coli, ATCC25922, read-out: MIC E. coli 25922
[3] = test system: K. pneumoniae UMM; test: microbe, parasite or virus in culture; assay type: cell-based; conditions: Klebsiella pneumoniae, read-out: MIC K. pneumoniae UMM
[4] = test system: P. aeruginosa ATCC 27853; test: microbe, parasite or virus in culture; assay type: cell-based; conditions: Pseudomonas aeruginosa, ATCC27853, read-out: MIC P. aeruginosa ATCC 27853
[5] = test system: N. gonorrhoeae MS11; test: Liquid broth MIC in Fastidious broth; conditions: Neisseria gonorrhoeae, MS11, read-out: Minimum Inhibitory Concentration (MIC), N. gonorrhoeae MS11
[6] = test system: N. gonorrhoeae WHO Z; test: Liquid broth MIC in Fastidious broth; conditions: Neisseria gonorrhoeae, read-out: Minimum Inhibitory Concentration (MIC), N. gonorrhoeae WHO Z
Protocol: Additional antibacterial testing of the series was performed in 8 reference strains of N. gonorrhoeae (ATCC 49226, FA1090, MS 11, WHO G, WHO L, WHO M, WHO K, WHO X, WHO Z, WHO Q, CDC-0197). ATCC 49226, FA1090, MS11, WHO G, WHO L, and WHO M produce wild type or wild-type like PBP2. WHO K, WHO X, WHO Z, WHO Q, and CDC-0197 produce mosaic PBP2. Liquid broth-based assays were used for antibacterial testing of PBP inhibitors in Neisseria gonorrhoeae. Briefly, cryo-preserved bacterial cultures of clinical strains were streaked for isolation on Chocolate Agar (72 g/L (2×) GC Agar Base (BD #228950) and 2% (2×) Hemoglobin was autoclaved at 121° C. for 20 minutes to sterilize. Once cooled to ˜50° C. the 2×GC Agar Base and 2× Hemoglobin solutions are combined and 1% IsoVitaleX Enrichment (BD #211876) was added to the solution). Strains were incubated at 36° C. and 5% CO2 to allow growth of colonies, 24 hours before inoculum preparation. 2-fold serial dilutions of test compounds were conducted in a 96 well plate with a final volume of 75 μL per well at 2-fold the final desired concentration in Fastidious broth (Remel #R07664). For preparation of assay inoculum, a direct suspension was prepared by aseptically swabbing 10-15 colonies from agar plates into culture tubes containing 2 mL of fresh sterile saline. After the dilution plates were set up, direct suspensions were then diluted in a cuvette containing sterile saline and the optical density was measured at 600 nm. Inocula were diluted such that 75 μL of this culture in Fastidious broth results in a starting bacterial concentration of 5×10^5 CFU/mL when added to the dilution plates. The plates were incubated for ˜24 hours at 36° C. and 5% CO2.

[7] = test system: N. gonorrhoeae WHO Q; test: Liquid broth MIC in Fastidious broth; conditions: Neisseria gonorrhoeae, read-out: Minimum Inhibitory Concentration (MIC), N. gonorrhoeae WHO Q

T1 sequence (G3XD46 whole entry): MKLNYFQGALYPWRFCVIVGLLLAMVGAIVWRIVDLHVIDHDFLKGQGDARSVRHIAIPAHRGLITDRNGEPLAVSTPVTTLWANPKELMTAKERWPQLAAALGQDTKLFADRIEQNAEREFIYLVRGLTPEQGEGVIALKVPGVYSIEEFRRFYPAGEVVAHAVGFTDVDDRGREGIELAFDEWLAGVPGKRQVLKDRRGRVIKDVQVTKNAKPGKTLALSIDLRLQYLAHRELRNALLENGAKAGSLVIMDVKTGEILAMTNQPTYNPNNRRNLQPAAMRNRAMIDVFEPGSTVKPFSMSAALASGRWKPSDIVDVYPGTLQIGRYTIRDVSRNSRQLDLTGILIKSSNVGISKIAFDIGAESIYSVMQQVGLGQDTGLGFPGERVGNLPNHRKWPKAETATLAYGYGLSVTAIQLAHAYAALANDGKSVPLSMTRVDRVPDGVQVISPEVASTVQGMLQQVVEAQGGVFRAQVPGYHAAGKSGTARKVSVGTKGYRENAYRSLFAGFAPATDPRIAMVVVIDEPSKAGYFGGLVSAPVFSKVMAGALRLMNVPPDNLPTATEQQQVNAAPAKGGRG

| SMILES | IC50 [1] | MIC [2] | MIC [3] | MIC [4] | MIC [5] | MIC [6] | MIC [7] |
| --- | --- | --- | --- | --- | --- | --- | --- |
| O=C(O)c1cccc2c1OB(O)[C@@H](NC(=O)[C@H](NC(=O)N1CCNC1=O)c1ccc(P(=O)(O)O)cc1)C2 [Example 40, (R)-2-hydroxy-3-((R)-2-(2-oxoimidazolidine-1-carboxamido)-2-(4-phosphonophenyl)acetamido)-3,4-dihydro-2H-benzo[e][1,2]oxaborinine-8-carboxylic acid] | < 10 µM | 32 to 64 mg/L (≈ 60.1 to 120 µM) | 32 to 64 mg/L (≈ 60.1 to 120 µM) | 32 to 64 mg/L (≈ 60.1 to 120 µM) | < 1 mg/L | < 1 mg/L | < 1 mg/L |
| CN1CCN(C(=O)NC(C(=O)N[C@H]2Cc3cccc(C(=O)O)c3OB2O)c2ccc(P(=O)(O)O)cc2)C1=O (stereo partly drawn) [Example 41, (3R)-2-hydroxy-3-(2-(3-methyl-2-oxoimidazolidine-1-carboxamido)-2-(4-phosphonophenyl)acetamido)-3,4-dihydro-2H-benzo[e][1,2]oxaborinine-8-carboxylic acid] | < 10 µM | 32 to 64 mg/L (≈ 58.6 to 117 µM) | 32 to 64 mg/L (≈ 58.6 to 117 µM) | > 128 mg/L | < 1 mg/L | < 1 mg/L | < 1 mg/L |
| CCN1CCN(C(=O)NC(C(=O)N[C@H]2Cc3cccc(C(=O)O)c3OB2O)c2ccc(P(=O)(O)O)cc2)C1=O (stereo partly drawn) [Example 42, (3R)-3-(2-(3-ethyl-2-oxoimidazolidine-1-carboxamido)-2-(4-phosphonophenyl)acetamido)-2-hydroxy-3,4-dihydro-2H-benzo[e][1,2]oxaborinine-8-carboxylic acid] | < 10 µM | 32 to 64 mg/L (≈ 57.1 to 114 µM) | 32 to 64 mg/L (≈ 57.1 to 114 µM) | > 128 mg/L | < 1 mg/L | < 1 mg/L | < 1 mg/L |
| CS(=O)(=O)N1CCC[C@H]1C(=O)N[C@H](C(=O)N[C@H]1Cc2cccc(C(=O)O)c2OB1O)c1ccc(P(=O)(O)O)cc1 [Example 43, (R)-2-hydroxy-3-((S)-2-((S)-1-(methylsulfonyl)pyrrolidine-2-carboxamido)-2-(4-phosphonophenyl)acetamido)-3,4-dihydro-2H-benzo[e][1,2]oxaborinine-8-carboxylic acid] | 50 to 250 µM | > 128 mg/L | > 128 mg/L | > 128 mg/L | 4 to 8 mg/L (≈ 6.72 to 13.4 µM) | 4 to 8 mg/L (≈ 6.72 to 13.4 µM) | 4 to 8 mg/L (≈ 6.72 to 13.4 µM) |
| CS(=O)(=O)N1CCC[C@H]1C(=O)N[C@@H](C(=O)N[C@H]1Cc2cccc(C(=O)O)c2OB1O)c1ccc(P(=O)(O)O)cc1 [Example 44, (R)-2-hydroxy-3-((R)-2-((S)-1-(methylsulfonyl)pyrrolidine-2-carboxamido)-2-(4-phosphonophenyl)acetamido)-3,4-dihydro-2H-benzo[e][1,2]oxaborinine-8-carboxylic acid] | < 10 µM | > 128 mg/L | > 128 mg/L | > 128 mg/L | 1 to 2 mg/L (≈ 1.68 to 3.36 µM) | 1 to 2 mg/L (≈ 1.68 to 3.36 µM) | 1 to 2 mg/L (≈ 1.68 to 3.36 µM) |
| CS(=O)(=O)N1CCN(C(=O)NC(C(=O)N[C@H]2Cc3cccc(C(=O)O)c3OB2O)c2ccc(P(=O)(O)O)c(F)c2O)C1=O (stereo partly drawn) [Example 48, (3R)-3-(2-(3-fluoro-2-hydroxy-4-phosphonophenyl)-2-(3-(methylsulfonyl)-2-oxoimidazolidine-1-carboxamido)acetamido)-2-hydroxy-3,4-dihydro-2H-benzo[e][1,2]oxaborinine-8-carboxylic acid] | 10 to 50 µM | > 128 mg/L | > 128 mg/L | > 128 mg/L | 1 to 2 mg/L (≈ 1.55 to 3.1 µM) | 1 to 2 mg/L (≈ 1.55 to 3.1 µM) | 1 to 2 mg/L (≈ 1.55 to 3.1 µM) |
| O=C(O)c1cccc2c1OB(O)[C@@H](NC(=O)C(NC(=O)[C@H]1CCCN1)c1ccc(P(=O)(O)O)cc1)C2 (stereo partly drawn) [Example 52, (3R)-2-hydroxy-3-(2-(4-phosphonophenyl)-2-((R)-pyrrolidine-2-carboxamido)acetamido)-3,4-dihydro-2H-benzo[e][1,2]oxaborinine-8-carboxylic acid] | 50 to 250 µM | > 128 mg/L | 32 to 64 mg/L (≈ 61.9 to 124 µM) | > 128 mg/L | 16 to 32 mg/L (≈ 30.9 to 61.9 µM) | 16 to 32 mg/L (≈ 30.9 to 61.9 µM) | 16 to 32 mg/L (≈ 30.9 to 61.9 µM) |
| O=C1CC[C@H](C(=O)NC(C(=O)N[C@H]2Cc3cccc(C(=O)O)c3OB2O)c2ccc(P(=O)(O)O)cc2)N1 (stereo partly drawn) [Example 53, (3R)-2-hydroxy-3-(2-((R)-5-oxopyrrolidine-2-carboxamido)-2-(4-phosphonophenyl)acetamido)-3,4-dihydro-2H-benzo[e][1,2]oxaborinine-8-carboxylic acid] | 10 to 50 µM | > 128 mg/L | > 128 mg/L | > 128 mg/L | 1 to 2 mg/L (≈ 1.88 to 3.76 µM) | 16 to 32 mg/L (≈ 30.1 to 60.2 µM) | 16 to 32 mg/L (≈ 30.1 to 60.2 µM) |
| O=C(O)c1cccc2c1OB(O)[C@@H](NC(=O)C(NC(=O)N1CCCNC1=O)c1ccc(P(=O)(O)O)cc1)C2 (stereo partly drawn) [Example 56, (3R)-2-hydroxy-3-(2-(2-oxohexahydropyrimidine-1-carboxamido)-2-(4-phosphonophenyl)acetamido)-3,4-dihydro-2H-benzo[e][1,2]oxaborinine-8-carboxylic acid] | < 10 µM | > 128 mg/L | > 128 mg/L | > 128 mg/L | 1 to 2 mg/L (≈ 1.83 to 3.66 µM) | 4 to 8 mg/L (≈ 7.32 to 14.6 µM) | 4 to 8 mg/L (≈ 7.32 to 14.6 µM) |
| O=C(O)c1cccc2c1OB(O)[C@@H](NC(=O)C(NC(=O)N1CCCC1=O)c1ccc(P(=O)(O)O)cc1)C2 (stereo partly drawn) [Example 57, (3R)-2-hydroxy-3-(2-(2-oxopyrrolidine-1-carboxamido)-2-(4-phosphonophenyl)acetamido)-3,4-dihydro-2H-benzo[e][1,2]oxaborinine-8-carboxylic acid] | < 10 µM | > 128 mg/L | 32 to 64 mg/L (≈ 60.2 to 120 µM) | > 128 mg/L | < 1 mg/L | 1 to 2 mg/L (≈ 1.88 to 3.76 µM) | 1 to 2 mg/L (≈ 1.88 to 3.76 µM) |
| NS(=O)(=O)NC(C(=O)N[C@H]1Cc2cccc(C(=O)O)c2OB1O)c1ccc(P(=O)(O)O)cc1 (stereo partly drawn) [Example 58, (3R)-2-hydroxy-3-(2-(4-phosphonophenyl)-2-(sulfamoylamino)acetamido)-3,4-dihydro-2H-benzo[e][1,2]oxaborinine-8-carboxylic acid] | > 250 µM | > 128 mg/L | > 128 mg/L | > 128 mg/L | 16 to 32 mg/L (≈ 32.1 to 64.1 µM) | 16 to 32 mg/L (≈ 32.1 to 64.1 µM) | 16 to 32 mg/L (≈ 32.1 to 64.1 µM) |
| CS(=O)(=O)NC(C(=O)N[C@H]1Cc2cccc(C(=O)O)c2OB1O)c1ccc(P(=O)(O)O)cc1 (stereo partly drawn) [Example 59, (3R)-2-hydroxy-3-(2-(methylsulfonamido)-2-(4-phosphonophenyl)acetamido)-3,4-dihydro-2H-benzo[e][1,2]oxaborinine-8-carboxylic acid] | > 250 µM | > 128 mg/L | > 128 mg/L | > 128 mg/L | 16 to 32 mg/L (≈ 32.1 to 64.2 µM) | 16 to 32 mg/L (≈ 32.1 to 64.2 µM) | 16 to 32 mg/L (≈ 32.1 to 64.2 µM) |
| CC(C)S(=O)(=O)NC(C(=O)N[C@H]1Cc2cccc(C(=O)O)c2OB1O)c1ccc(P(=O)(O)O)cc1 (stereo partly drawn) [Example 60, (3R)-2-hydroxy-3-(2-((1-methylethyl)sulfonamido)-2-(4-phosphonophenyl)acetamido)-3,4-dihydro-2H-benzo[e][1,2]oxaborinine-8-carboxylic acid] | 50 to 250 µM | > 128 mg/L | > 128 mg/L | > 128 mg/L | 16 to 32 mg/L (≈ 30.4 to 60.8 µM) | 16 to 32 mg/L (≈ 30.4 to 60.8 µM) | 16 to 32 mg/L (≈ 30.4 to 60.8 µM) |
| O=C(O)c1cccc2c1OB(O)[C@@H](NC(=O)C(NS(=O)(=O)C1CC1)c1ccc(P(=O)(O)O)cc1)C2 (stereo partly drawn) [Example 61, (3R)-3-(2-(cyclopropanesulfonamido)-2-(4-phosphonophenyl)acetamido)-2-hydroxy-3,4-dihydro-2H-benzo[e][1,2]oxaborinine-8-carboxylic acid] | 10 to 50 µM | > 128 mg/L | > 128 mg/L | > 128 mg/L | 16 to 32 mg/L (≈ 30.5 to 61 µM) | 16 to 32 mg/L (≈ 30.5 to 61 µM) | 16 to 32 mg/L (≈ 30.5 to 61 µM) |
| O=C1CC[C@@H](C(=O)NC(C(=O)N[C@H]2Cc3cccc(C(=O)O)c3OB2O)c2ccc(P(=O)(O)O)cc2)N1 (stereo partly drawn) [Example 64, (3R)-2-hydroxy-3-(2-((S)-5-oxopyrrolidine-2-carboxamido)-2-(4-phosphonophenyl)acetamido)-3,4-dihydro-2H-benzo[e][1,2]oxaborinine-8-carboxylic acid] | 50 to 250 µM | > 128 mg/L | > 128 mg/L | > 128 mg/L | 4 to 8 mg/L (≈ 7.53 to 15.1 µM) | 4 to 8 mg/L (≈ 7.53 to 15.1 µM) | 16 to 32 mg/L (≈ 30.1 to 60.2 µM) |
| CC(=O)N1CCC[C@H]1C(=O)NC(C(=O)N[C@H]1Cc2cccc(C(=O)O)c2OB1O)c1ccc(P(=O)(O)O)cc1 (stereo partly drawn) [Example 65, (3R)-3-(2-((S)-1-acetylpyrrolidine-2-carboxamido)-2-(4-phosphonophenyl)acetamido)-2-hydroxy-3,4-dihydro-2H-benzo[e][1,2]oxaborinine-8-carboxylic acid] | 50 to 250 µM | > 128 mg/L | > 128 mg/L | > 128 mg/L | 16 to 32 mg/L (≈ 28.6 to 57.2 µM) | 16 to 32 mg/L (≈ 28.6 to 57.2 µM) | 16 to 32 mg/L (≈ 28.6 to 57.2 µM) |
| CN1CCC[C@H]1C(=O)NC(C(=O)N[C@H]1Cc2cccc(C(=O)O)c2OB1O)c1ccc(P(=O)(O)O)cc1 (some centres unmarked) [Example 66] | 10 to 50 µM | > 128 mg/L | > 128 mg/L | > 128 mg/L | 16 to 32 mg/L (≈ 30.1 to 60.2 µM) | 16 to 32 mg/L (≈ 30.1 to 60.2 µM) | 16 to 32 mg/L (≈ 30.1 to 60.2 µM) |
